Data as given in patent US20080208039A1, “System and method of performing therapeutic endovascular interventions” (Wisconsin Alumni Research Foundation, priority 2007, published 2008).

Experiment: Diffusion of a fluorescent probe in swollen gelatin gel by FRAP
Assay type: physicochemical
Text: To assess the stability of DTPA[Gd(III)] in the gelatin coating, the diffusion of a fluorescence probe in gelatin was studied by the technique of fluorescence recovery after photobleaching (FRAP). The instrument and data analysis scheme are described in Kim, S. H. and Yu, H., J. Phys. Chem. 1992, 96, 4034, which is hereby fully incorporated by reference. Fluorescein was used as the fluorescence probe due, in part, to its molecular size being roughly the same as that of DTPA[Gd(III)].
The focus of the study was to examine the possible retardation effects of gelatin concentration and cross-link density on the diffusion, which was determined at room temperature, i.e., below the gel point of gelatin. The diffusion of fluorescein probe slows down with the increase of gelatin concentration. The diffusion coefficient decreases from 1.5×10-10 to 9×10-12 m2s-1 when the concentration of gelatin increases from 9% to 40%. […] Accordingly, the probe diffusion is more likely controlled by the concentration of gelatin rather than the cross-link density. On the other hand, the cross-link density may determine the swelling ratio of gelatin, i.e., the concentration of gelatin in aqueous solution. […]

O=C(O)CN(CCN(CC(=O)O)CC(=O)O)CCN(CC(=O)O)CC(=O)O [DTPA, diethylenetriaminepentaacetic acid]
time to diffuse out of the gelatin coating (coating thickness 60 μm, diffusion coefficient 9×10-12 m2s-1): about 67 seconds

O=C1OC2(c3ccc(O)cc3Oc3cc(O)ccc32)c2ccccc21 [fluorescein]
fluorescence remaining in gelatin films after soaking (gelatin films soaked in water for 18 hours, including films not cross-linked): still fluorescence signal
